Source: patent EP4647071A1, “MITOCHONDRIAL COMPLEX I MODULATOR FOR USE IN THE TREATMENT OF ARTHRITIS” (Istesso Therapeutics Limited, priority 2024, dated 2025)
Marks after values point to notes of the source that are not given here.

How the values were obtained:
C-reactive protein (CRP) = test: C-reactive protein inflammatory biomarker, clinical study; type: in vivo, human; details: 12 weeks
rheumatoid factor = test: Rheumatoid factor inflammatory biomarker, clinical study; type: in vivo, human; details: 12 weeks
From the text: These structural changes are accompanied by a reduction in the acute phase reactant, C-reactive protein (CRP) and other inflammatory markers such as rheumatoid factor (Table 4). Table 3. Effect of MCIM compounds on damage indicators. * indicates statistical significance, p<0.05. a p = 0.1

C[C@]1(O)CC[C@H](NS(=O)(=O)c2ccc(-c3ccc(Cl)cc3C#N)cc2)CC1 [HMC-C-01-A]
CRP- mean, Change from baseline (C-reactive protein (CRP); 5 mg once daily): 0.88 (18.4)
CRP- median, Change from baseline (C-reactive protein (CRP); 5 mg once daily): -0.20
CRP- mean, Change from baseline (C-reactive protein (CRP); 20 mg once daily): -4.13 (20.6)
CRP- median, Change from baseline (C-reactive protein (CRP); 20 mg once daily): -0.10
CRP- mean, Change from baseline (C-reactive protein (CRP); 40 mg once daily, p<0.05): -5.73 (27.7) *
CRP- median, Change from baseline (C-reactive protein (CRP); 40 mg once daily, p<0.05): -2.50 *
Rheumatoid factor, mean, Change from baseline (rheumatoid factor; 5 mg once daily): 6.8 (80.9)
Rheumatoid factor, mean, Change from baseline (rheumatoid factor; 20 mg once daily): -5.0 (60.4)
Rheumatoid factor, mean, Change from baseline (rheumatoid factor; 40 mg once daily): -11.3 (88.0)
